In the assay the test system is CEM cells HIV-1 protection, formazan growth assay. Description: NCI AIDS Antiviral Assay. The settings on record: for IC50: measured here: growth of uninfected CEM cells. In short, it runs like this: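 Soluble formazan readout of cell growth; CEM cells ± HIV-1; 5 drug concs. ≥50% protection → retest; ≥50% again = moderately active; reproducible 100% = confirmed active.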

A word on the EC50: it is the concentration at which the effect is half-maximal. For orientation: IC50 means the concentration that gives 50% inhibition. High values mean lower potency, low ones higher potency.

Each structure is given as a SMILES string. Active and inactive are the calls of the source.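 Rule for the calls: active = compounds giving half or more protection of infected cells from virus-caused growth loss, again on retest; inactive = the rest.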

Turning to `Nc1ccc2ccccc2c1N=Nc1ccc(/C=C/c2ccc(N=Nc3c(N)ccc4ccccc34)cc2S(=O)(=O)O)c(S(=O)(=O)O)c1`, the EC50 was 63.1 µM and the IC50 worked out at 115 µM.

With `CC1C(=O)CC(c2cccs2)N(N=O)C1c1cccs1` (stereo unspecified), the EC50 was greater than 117 µM and the IC50 was 77.6 µM.

With `COc1cc2c(cc1OC)C(C1(O)CCCCC1)NCC2` (stereo unspecified), the EC50 is greater than 851 µM and the IC50 amounted to 457 µM.

Turning to `COc1ccc(N2C(=O)CC(=O)N(C(=O)CCCCCCCCC(=O)N3C(=O)CC(=O)N(c4ccc(OC)cc4)C3=S)C2=S)cc1`, the EC50 is greater than 200 µM and the IC50 stood at 102 µM.

As for `O=C(O)C(CS)Nc1c2ccccc2nc2ccccc12` (stereo unspecified), the outcome was inactive.

In the case of `COc1ccc(/C=C/C(=O)c2cc(CN(C)C)c(O)c(CN(C)C)c2)cc1`, the EC50 was greater than 200 µM and the 50% inhibitory concentration (IC50) was 40.7 µM.

Turning to `C[C@@H]1C(=O)O[C@@H]2C[C@@]1(C)[C@@H]1C(=O)C3(O)OC14C2(C)OC(=O)[C@@]4(O)CCC1C3C(O)C=C2CC=CC(=O)[C@@]21C` (stereo partly specified), the EC50 was greater than 200 µM and the IC50 was 20 µM.

As for `CN(CO)c1nc(N(C)CO)nc(N(C)CO)n1`, the EC50 was greater than 26.3 µM and the IC50 is 24 µM.

For the molecule `N#CC(C(=O)CCC(=O)Nc1cccc(Cl)c1)c1ccccc1` (stereo unspecified), the EC50 was greater than 759 µM and the IC50 was greater than 759 µM.

Regarding `CC(C)=CCC12Cc3ccc(O)cc3C(C(C)CN1)C2C` (stereo unspecified), the EC50 was greater than 200 µM and the IC50 is greater than 200 µM.

As to `COC(=O)C1=CON2C3CC4CC(C3)CC(C4)C12C` (stereo unspecified), the EC50 is greater than 200 µM and the IC50 was found to be 135 µM.

For `O=S(=O)(O)OC1CCCCC1Nc1ccccc1` (stereo unspecified), the outcome was inactive.

On to `Cc1ccccc1-c1cc(=O)c2cc(C)c(C)c(C(=O)O)c2o1`, for which the outcome was inactive.

In the case of `CC(=O)[O-].CC(=O)[O-].CC(=O)[O-].CC(=O)[O-].CO.CO.CO.[Rh+2].[Rh+2].c1ccc(-c2ccccn2)nc1`, the EC50 is 145 µM and the IC50 is 174 µM.

Take `Cc1ccc(NC(c2ccccc2)P(=O)(c2ccccc2)c2ccccc2)cc1` (stereo unspecified): the EC50 was greater than 200 µM and the IC50 is greater than 200 µM.

With `COc1ccc(C(OCC2OC(N3CN4C(=NC3=O)N(C(=O)C(C)C)C(OC(=O)C(C)C)C4OC(=O)C(C)C)CC2OP(OC)N(C(C)C)C(C)C)(c2ccccc2)c2ccc(OC)cc2)cc1` (stereo unspecified), the EC50 was greater than 100 µM and the IC50 is greater than 100 µM.

In the case of `CCOC(=O)c1c[nH]c2oc(/C=N/N3CC(CN4CCOCC4)OC3=O)cc2c1=O` (stereo unspecified), the EC50 is greater than 302 µM and the IC50 was determined as 162 µM.

Take `COC(=O)C1=C(CS(=O)c2ccccc2[N+](=O)[O-])ON(C)C1c1ccccc1` (stereo unspecified): the result was inactive.

As for `CN(C)c1ccc(-c2nc(N)nc3c2CCCC3)cc1`, the EC50 was greater than 37.2 µM and the IC50 was greater than 37.2 µM.

As to `O=[N+]([O-])c1nccn1CC(O)CF` (stereo unspecified), the EC50 was greater than 468 µM and the half-maximal inhibitory concentration (IC50) was greater than 468 µM.

In the case of `CCC(C)N(CCN)C(=O)c1cc2ccccc2c(-c2ccccc2Cl)n1` (stereo unspecified), the outcome was inactive.

`COc1ccc(-c2cc(=O)c3c(O)cc(O)cc3o2)cc1`: the EC50 is greater than 105 µM and the IC50 was greater than 105 µM.

In the case of `COc1ccc(C2C(C#N)=C(O)NC(O)=C2C#N)cc1OC`, the EC50 is greater than 120 µM and the IC50 was greater than 120 µM.

Turning to `N#CCC[P+](c1ccccc1)(c1ccccc1)c1ccccc1`, the EC50 is greater than 200 µM and the IC50 worked out at 55 µM.

On to `CC(C)/C(Cl)=N/OC(=O)Nc1ccc(OC(F)(F)F)cc1`, for which the EC50 is greater than 200 µM and the IC50 turned out to be 10.5 µM.

As for `O=C(/C(N=Nc1ccccc1)=C(\O)c1ccccc1)c1ccccc1`, the EC50 is greater than 21.9 µM and the IC50 was greater than 21.9 µM.

`CN(C)c1ccc2nc(CC(O)(C(F)(F)F)C(F)(F)F)ccc2c1`: the EC50 is greater than 200 µM and the IC50 was greater than 200 µM.

As for `CC1=NC(C(C)C)C(=O)O1` (stereo unspecified), the EC50 was greater than 891 µM and the IC50 is greater than 891 µM.

The values are drawn from PubChem BioAssay AID179 (DTP/NCI, 2004).
